The target of assay [1] is T1, Rap guanine nucleotide exchange factor 4 (Homo sapiens, UniProt Q8WZA2). The assay is described as follows: Inhibition of 8-NBD-cAMP binding to EPAC2 (unknown origin) by microplate reader analysis.
The target in assay [2] is T1, Rap guanine nucleotide exchange factor 4. The assay can be described thus: Inhibition of EPAC2 (unknown origin) assessed as reduction in cAMP-mediated guanine nucleotide exchange factor activity in presence of C-terminal truncated Rap1B (1 to 167 residues)-BODIPY-GDP by microplate reader analysis. As to conditions: for inhibition: concentration not given here.
The target in assay [3] is T2, Rap guanine nucleotide exchange factor 3 (Homo sapiens) (UniProt O95398).
T2 sequence (whole entry): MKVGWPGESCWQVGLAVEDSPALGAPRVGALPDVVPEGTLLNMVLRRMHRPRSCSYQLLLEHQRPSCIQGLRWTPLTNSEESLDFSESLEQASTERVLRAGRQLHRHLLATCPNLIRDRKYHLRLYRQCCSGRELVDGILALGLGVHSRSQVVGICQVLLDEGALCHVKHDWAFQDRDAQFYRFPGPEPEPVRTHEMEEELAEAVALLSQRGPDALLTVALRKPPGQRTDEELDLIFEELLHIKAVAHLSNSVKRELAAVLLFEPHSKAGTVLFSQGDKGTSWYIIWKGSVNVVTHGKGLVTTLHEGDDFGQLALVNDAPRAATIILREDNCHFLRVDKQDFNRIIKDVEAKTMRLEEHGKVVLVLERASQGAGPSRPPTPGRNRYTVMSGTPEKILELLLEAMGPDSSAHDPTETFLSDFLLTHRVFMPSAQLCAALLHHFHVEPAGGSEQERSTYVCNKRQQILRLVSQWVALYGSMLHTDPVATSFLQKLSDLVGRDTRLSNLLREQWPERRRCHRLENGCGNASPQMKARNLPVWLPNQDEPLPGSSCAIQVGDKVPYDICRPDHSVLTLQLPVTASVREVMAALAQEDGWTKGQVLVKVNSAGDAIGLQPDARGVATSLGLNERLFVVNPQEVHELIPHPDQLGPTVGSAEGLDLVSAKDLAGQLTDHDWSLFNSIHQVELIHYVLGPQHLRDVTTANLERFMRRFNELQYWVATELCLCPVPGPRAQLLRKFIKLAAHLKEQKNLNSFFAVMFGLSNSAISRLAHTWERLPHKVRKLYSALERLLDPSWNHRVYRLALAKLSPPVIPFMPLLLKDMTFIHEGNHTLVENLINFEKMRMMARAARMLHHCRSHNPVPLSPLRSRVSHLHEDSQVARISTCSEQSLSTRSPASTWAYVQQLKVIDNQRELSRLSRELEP
The assay is described as follows: Inhibition of EPAC1 (unknown origin) assessed as reduction in cAMP-mediated guanine nucleotide exchange factor activity up to 100 uM in presence of C-terminal truncated Rap1B (1 to 167 residues)-BODIPY-GDP by microplate reader analysis.

For assay [4], the target named is T1, Rap guanine nucleotide exchange factor 4. The assay can be described thus: Non-competitive inhibition of EPAC2 (unknown origin) assessed as reduction in cAMP-mediated guanine nucleotide exchange factor activity at 1 uM in presence of C-terminal truncated Rap1B (1 to 167 residues)-BODIPY-GDP.
Target sequence in this assay (Q8WZA2 whole entry, looked up, the tested form may be a part): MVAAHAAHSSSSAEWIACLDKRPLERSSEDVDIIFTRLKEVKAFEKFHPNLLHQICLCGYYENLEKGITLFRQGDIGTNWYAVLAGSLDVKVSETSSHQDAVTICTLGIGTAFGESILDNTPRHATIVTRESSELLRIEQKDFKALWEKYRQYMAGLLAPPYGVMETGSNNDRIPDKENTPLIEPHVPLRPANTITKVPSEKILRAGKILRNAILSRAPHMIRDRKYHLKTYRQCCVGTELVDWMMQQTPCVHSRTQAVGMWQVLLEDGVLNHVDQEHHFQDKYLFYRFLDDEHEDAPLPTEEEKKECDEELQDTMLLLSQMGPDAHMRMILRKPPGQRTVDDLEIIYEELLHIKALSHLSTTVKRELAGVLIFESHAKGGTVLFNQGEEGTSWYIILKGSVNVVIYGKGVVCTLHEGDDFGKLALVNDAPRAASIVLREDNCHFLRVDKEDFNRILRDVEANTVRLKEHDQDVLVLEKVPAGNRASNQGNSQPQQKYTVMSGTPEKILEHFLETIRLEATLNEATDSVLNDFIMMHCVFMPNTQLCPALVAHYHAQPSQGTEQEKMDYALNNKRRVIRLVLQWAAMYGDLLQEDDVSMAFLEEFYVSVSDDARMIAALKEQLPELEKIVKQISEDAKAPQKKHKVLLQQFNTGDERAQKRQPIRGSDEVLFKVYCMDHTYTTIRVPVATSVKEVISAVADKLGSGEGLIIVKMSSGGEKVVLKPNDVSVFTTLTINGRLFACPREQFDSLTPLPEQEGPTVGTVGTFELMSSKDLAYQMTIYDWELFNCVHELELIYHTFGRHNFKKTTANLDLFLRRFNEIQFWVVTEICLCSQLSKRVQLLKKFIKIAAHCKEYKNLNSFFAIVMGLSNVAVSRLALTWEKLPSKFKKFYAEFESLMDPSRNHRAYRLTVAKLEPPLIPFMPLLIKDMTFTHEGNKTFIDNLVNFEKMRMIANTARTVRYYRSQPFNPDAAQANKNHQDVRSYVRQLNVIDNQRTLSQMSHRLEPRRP

Structures are written as SMILES. pIC50: −log10 of the molar value. Active and inactive are the calls of the source. No cut-off for these calls is given here.

With `Cc1cc(C)c(Nc2ccc3c(c2)CCC3)c(C)c1`, the negative-log IC50 (pIC50) (in general, the negative decadic logarithm of the IC50, by convention in mol/L) in assay [1] was 5.74. Same read-out and setting: the same measure for `Cc1cc(C)c(Nc2cccc(O)c2)c(C)c1`: 4.34; for `Cc1cc(C)c(C#Cc2cccc(Nc3c(C)cc(C)cc3C)c2)c(C)c1`: less than 3.52; for `Cc1cc(C)c(Nc2cc(F)c(F)c(F)c2)c(C)c1`: 5.52.

In assay [1], `Cc1cc(C)c(Nc2ccc(F)c(Cl)c2)c(C)c1` gave a pIC50 of 5.54. In assay [1], `Cc1cc(C)c(Nc2cc(C)ccc2C)c(C)c1` had a pIC50 of 5.74.

As to `COc1cccc(Nc2c(C)cc(C)cc2C)c1`, the pIC50 in assay [1] is 4.97. Same read-out and setting: the value for `Cc1cc(C)c(Nc2cccc(C)c2C)c(C)c1` was 6.00; that for `CCc1cccc(Nc2c(C)cc(C)cc2C)c1` was 5.74. Regarding `Cc1cc(C)c(Nc2cc(C(F)(F)F)cc(C(F)(F)F)c2)c(C)c1`, the results for the negative logarithm of the IC50 (pIC50) in assay [1] and in assay [2] were 6.22 and 5.89, respectively. Moreover, the inhibition (as a rule, the drop in the measured response relative to a control, in per cent) was “Dose-dependent effect” in assay [1], 60% in assay [1] (concentration not given here) and greater than 80% in assay [2]. Besides, the inhibition result in assay [3] is “inactive”. Turning to `Cc1cc(C)c(Nc2c(F)cc(F)cc2F)c(C)c1`, the pIC50 in assay [1] was 5.57.

In assay [1], `Cc1cc(C)c(Nc2ccc(Br)cc2)c(C)c1` showed a pIC50 of 5.80. On to `Cc1cc(C)c(Nc2cccc(F)c2)c(C)c1`, for which the pIC50 in assay [1] is 5.24. On the same count and under the same terms, the same measure for `Cc1cc(C)c(Nc2cccc(C(F)(F)F)c2)c(C)c1`: 5.70. Same read-out and setting: the same measure for `Cc1cc(C)c(Nc2cccc(Br)c2)c(C)c1`: 5.82; for `Cc1cc(C)c(Nc2ccc(Cl)c(F)c2)c(C)c1`: 5.48. On the same count and under the same terms, the value for `Cc1cc(C)c(Nc2cc(F)cc(F)c2)c(C)c1` was 5.24.

Regarding `CC(C)(C)c1cc(C(=O)/C(C#N)=N/Nc2cccc(Cl)c2)no1`, the inhibition in assay [2] is greater than 80%. As for `Cc1cc(C)c(Nc2cccc(N)c2)c(C)c1`, the pIC50 in assay [1] was 4.47. The same measure, in the same setting: the value for `Cc1cc(C)c(Nc2c(C)cc(Cl)cc2Cl)c(C)c1` was 6.15; that for `Cc1cc(C)cc(Nc2c(C)cc(C)cc2C)c1` was 5.77; that for `Cc1cc(C)c(Nc2ccc(F)c(F)c2)c(C)c1` was 5.06. Still for that read-out and setting: the same measure for `Cc1cc(C)c(Nc2cc(Cl)c(Cl)c(Cl)c2)c(C)c1`: 5.96.

With `Cc1cc(C)c(Nc2c(C)cc(C)cc2C)c(C)c1`, the pIC50 in assay [1] is 6.40; in assay [2], 5.77. Moreover, the inhibition entry in assay [1] was “Dose-dependent effect”; in assay [1] (concentration not given here) it was 80%; in assay [2], greater than 80%. Also, the inhibition result in assay [3] was “inactive”. For the compound `Cc1ccc(Nc2c(C)cc(C)cc2C)c(C)c1`, the pIC50 in assay [1] is 5.66.

For `Cc1cc(C)c(Nc2ccc(C)c(Cl)c2)c(C)c1`, the pIC50 in assay [1] is 5.74. Compound `Cc1cc(C)c(Nc2ccc(Cl)c(Cl)c2)c(C)c1` gave a negative logarithm of the IC50 (pIC50) in assay [1] of 5.96. On the same count and under the same terms, the same measure for `Cc1cc(C)c(Nc2cc(Cl)ccc2C)c(C)c1`: 5.85. Take `Cc1cc(C)c(Nc2cccc(Cl)c2C)c(C)c1`: the negative logarithm of the IC50 (pIC50) in assay [1] is 6.30; in assay [2], 5.44. The inhibition entry in assay [1] was “Dose-dependent effect”; in assay [1] (concentration not given here) it was 80%; in assay [2], greater than 80%. Also, the inhibition entry in assay [3] is “inactive”. As for `Cc1cc(C)c(Nc2ccc(Cl)c(C(F)(F)F)c2)c(C)c1`, the pIC50 in assay [1] is 6.40; in assay [2], 6.00. For the same compound, the inhibition entry in assay [1] is “Dose-dependent effect”; in assay [1] (concentration not given here) it was 80%; in assay [2], greater than 80%. Also, the inhibition result in assay [3] is “inactive”. Besides, the inhibition result in assay [4] is “Active”. For `Cc1cc(C)c(Nc2cc(Cl)cc(C(F)(F)F)c2)c(C)c1`, the pIC50 in assay [1] is 6.30. The same measure, in the same setting: the value for `Cc1cc(C)c(Nc2cc(F)cc(Cl)c2)c(C)c1` was 5.54.

(Values after ChEMBL document CHEMBL3808331, “Functionalized N,N-Diphenylamines as Potent and Selective EPAC2 Inhibitors” (ACS Med Chem Lett, 2016).)
